Data on one compound can be found in paper PMC6504873, “High-throughput screening of the Plasmodium falciparum cGMP-dependent protein kinase identified a thiazole scaffold which kills erythrocytic and sexual stage parasites” (Scientific Reports, 2019).

In data set [1] the target is T1, WT PfPKG (Plasmodium falciparum, UniProt Q8I719).
T1 construct: recombinant full length wild type (WT) PfPKG; His6 (N); host or cells: E. coli BL21
The data set can be described thus: Kinase Glo enzymatic assay, recombinant WT PfPKG. As to conditions: WT PfPKG (μM), recombinant WT PfPKG. In kind it is biochemical, P. falciparum. How it is done: To identify new PKG inhibitor scaffolds, the 1.7 million GlaxoSmithKline Full Diversity collection was tested at a single final concentration of 10 μM against recombinant full length wild type (WT) PfPKG using a Kinase Glo-based assay (Promega). The results gave a robust Z′ mean value of 0.85. At an average statistical cut-off of 30%, 20,174 primary hits were identified with an overall hit rate of 1%. Fresh samples of these primary hits were tested in duplicate against WT PfPKG and also against human PKGIα (HuPKGIα) (Supplementary Fig. 1) at a final concentration of 10 μM (confirmation step).
(§1) Protein production was outsourced to the Division of Signal Transduction Therapy, University of Dundee. Briefly, the pTRChis expression vectors (Invitrogen) containing an N-terminally His6-tagged PfPKG wildtype and T618Q were used to transform BL21 cells (protocol adapted from[23]). The cells were grown at 37 °C until the OD600 was 0.4–0.6 then the temperature was reduced to 15 °C and the cells were induced with 250 µM IPTG and grown for a further 16–18 hours before harvesting. The His6-PfPKG was purified on Cobalt agarose followed by gel filtration and the protein was dialysed into 25 mM Hepes pH 7.5, 0.1 mM EGTA, 150 mM NaCl, 50% glycerol and 2 mM DTT.
(§2) Initial optimization of the PKG assay was performed manually in 384-well plates and analysed with GraFit 7. The buffer for all assays was 25 mM HEPES pH 7.3 (GIBCO), 10 mM MgCl2 (Sigma), 2 mM DTT (Sigma), 0.01 mM cGMP (Sigma), 0.1 mg/ml BSA (Ambion). Enzymatic activity was tested using a luminescence-based kit (Promega KinaseGlo). Addition of the first reagent depletes the unused ATP and addition of the second reagent converts ADP (product of the kinase reaction) to ATP, which is then measured through a luciferin/luciferase reaction. The amount of luminescence is directly proportional to ATP turnover by the kinase. The kit was chosen because it can be miniaturized to small volumes (i.e. 4 µl) in 1536-well plates, for use in HTS.
(§3) We used PKA peptide substrate (SCP0212, Sigma-Aldrich) for WT and TQ PfPKG, dissolved in milliQ water at a final concentration of 5 mM, and Long S6 peptide substrate (produced at the University of Dundee, sequence […]) for HuPKGIα, dissolved in water at a final concentration of 30 mM.
(§4) We calculated the Michaelis-Menten (Km) constant for ATP and peptide substrate (PKA or Long S6) for all enzymes using GraphPad Prism (Supplementary Figs 2 and 3 and Supplementary Table 3). In order to identify different types of PKG inhibitors, including ATP competitive or non-competitive inhibitors, as well as inhibitors that bind to the peptide substrate pocket, we performed all assays using ATP and peptide substrate at a concentration equal to the Km. We also determined enzyme activity by calculating ATP turnover (Kcat) over the Km (Supplementary Table 3). The Kcat was calculated as (Vmax*slope)/[E] where Vmax is the maximum velocity and [E] is the concentration of the enzyme.
(§5) The plates containing the compounds were prepared at GSK in Upper Providence or Stevenage. Compounds were tested at a single final concentration of 10 µM or in a dose response with a range of concentrations starting from 100 μM to 1.6 nM (1 in 3 serial dilutions). Compounds were dispensed in the plates at the required concentration in a 40 nl volume. All plates (1536-well white Greiner) contained 40 nl of DMSO in lanes 11 and 12 (control 1, 100% enzyme activity) and were empty in lanes 35 and 36 (control 2, 0% enzyme activity). The plates were removed from −20 °C 1 hour before starting the assay. Using a Multidrop Combi dispenser (Thermo Scientific), 2 µl of the buffer containing ATP and the substrate were added to all wells then 2 µl of buffer only were added to column 35 and 36. Finally 2 µl of buffer containing the enzyme were dispensed in all the plate wells except for lanes 35 and 36. […]

Data set [2] can be described thus: AM_Perm (artificial membrane permeability). In kind it is in vitro ADME.
The nature of data set [3]: ChromlogD (lipophilicity).
The target of data set [4] is T1, WT PfPKG. Details: species or system P. falciparum. An excerpt: A scoring system was developed to further prioritize interesting compounds. […] Three points were given to compounds that inhibit HuPKGIα at least 3 orders of magnitude less than WT PfPKG. […] We also considered how well the compounds bind to the target by taking into account two physicochemical properties: ligand efficiency (LE, 1.37 x pIC50/number heavy atoms) is a characterization of a compound’s efficiency on a per-heavy-atom basis[51] and lipophilic ligand efficiency (LLE, pIC50 – clogP) is a parameter used in drug design which links potency and lipophilicity in an attempt to estimate drug-likeness[52]. The ClogP coefficient measures lipophilicity. Values of LE ≥ 0.3 and LLE ≥ 5 are typically accepted as good starting points for optimizations efforts.

The target in the next data set is PI3KD (Homo sapiens, UniProt O00329). Nature of the data set: Preliminary safety test on human PI3KD kinase. In kind it is biochemical.
Chain of PI3KD (O00329 whole entry): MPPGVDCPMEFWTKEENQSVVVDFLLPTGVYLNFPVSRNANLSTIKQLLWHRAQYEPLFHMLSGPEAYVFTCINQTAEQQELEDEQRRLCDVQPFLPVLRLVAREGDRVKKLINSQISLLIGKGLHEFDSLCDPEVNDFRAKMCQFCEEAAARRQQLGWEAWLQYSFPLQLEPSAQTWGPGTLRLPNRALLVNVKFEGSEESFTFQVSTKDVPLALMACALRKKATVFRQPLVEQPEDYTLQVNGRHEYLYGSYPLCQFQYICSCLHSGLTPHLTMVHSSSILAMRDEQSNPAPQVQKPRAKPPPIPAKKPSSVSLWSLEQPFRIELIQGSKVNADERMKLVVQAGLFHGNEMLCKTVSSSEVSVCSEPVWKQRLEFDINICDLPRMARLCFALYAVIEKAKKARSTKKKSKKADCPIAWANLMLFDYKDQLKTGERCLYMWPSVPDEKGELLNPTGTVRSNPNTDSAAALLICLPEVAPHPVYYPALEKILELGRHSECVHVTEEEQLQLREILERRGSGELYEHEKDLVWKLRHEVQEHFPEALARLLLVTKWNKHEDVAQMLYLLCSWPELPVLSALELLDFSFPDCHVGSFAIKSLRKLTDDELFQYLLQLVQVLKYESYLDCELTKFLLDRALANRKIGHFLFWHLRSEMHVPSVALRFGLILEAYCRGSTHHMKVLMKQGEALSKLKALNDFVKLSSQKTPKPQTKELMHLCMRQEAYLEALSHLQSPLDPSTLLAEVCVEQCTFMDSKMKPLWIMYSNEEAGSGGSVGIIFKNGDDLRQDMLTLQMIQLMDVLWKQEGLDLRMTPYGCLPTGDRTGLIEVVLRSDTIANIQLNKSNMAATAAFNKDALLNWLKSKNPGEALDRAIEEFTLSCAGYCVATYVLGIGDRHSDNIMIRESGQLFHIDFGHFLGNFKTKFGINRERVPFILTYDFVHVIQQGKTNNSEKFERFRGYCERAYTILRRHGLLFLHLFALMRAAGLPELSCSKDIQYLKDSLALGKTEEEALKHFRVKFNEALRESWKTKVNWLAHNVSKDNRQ
Chain of PI3KD (P27986 whole entry partner): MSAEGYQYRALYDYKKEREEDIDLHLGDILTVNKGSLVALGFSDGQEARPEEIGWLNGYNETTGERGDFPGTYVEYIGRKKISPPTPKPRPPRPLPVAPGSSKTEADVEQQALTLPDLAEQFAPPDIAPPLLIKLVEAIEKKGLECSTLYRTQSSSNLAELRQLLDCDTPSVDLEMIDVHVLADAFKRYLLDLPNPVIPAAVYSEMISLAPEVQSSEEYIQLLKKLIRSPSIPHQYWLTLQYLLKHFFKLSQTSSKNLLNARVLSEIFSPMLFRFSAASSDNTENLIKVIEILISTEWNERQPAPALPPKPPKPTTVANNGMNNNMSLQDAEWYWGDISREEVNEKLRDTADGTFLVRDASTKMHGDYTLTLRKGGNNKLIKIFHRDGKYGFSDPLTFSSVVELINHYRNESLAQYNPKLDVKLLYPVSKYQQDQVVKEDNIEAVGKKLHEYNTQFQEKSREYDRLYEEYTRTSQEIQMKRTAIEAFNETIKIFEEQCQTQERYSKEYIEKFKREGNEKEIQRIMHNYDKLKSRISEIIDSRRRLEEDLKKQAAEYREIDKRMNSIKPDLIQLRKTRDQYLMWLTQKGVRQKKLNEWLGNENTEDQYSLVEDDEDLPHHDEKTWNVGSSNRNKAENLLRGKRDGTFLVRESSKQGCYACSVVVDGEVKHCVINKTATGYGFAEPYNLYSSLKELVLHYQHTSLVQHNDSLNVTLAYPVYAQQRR
The next data set addresses T2, TQ PfPKG (PfPKG_T618Q) (Plasmodium falciparum, UniProt Q8I719, T618Q).
T2 construct: His6 (N); host or cells: E. coli BL21
Nature of the data set: Kinase Glo enzymatic assay, gatekeeper mutant TQ PfPKG. The class given is biochemical, P. falciparum. How it is done:
Taking advantage of the availability of more than 3,000 thiazole derivatives among the GSK compound collection, cluster 3 was thoroughly investigated for potent and selective inhibitors of WT PfPKG. […] We explored the binding mode by also testing compounds on the gatekeeper mutant enzyme TQ PfPKG. […] These two time points were chosen to give an indication of the speed of kill of the compounds. […] A preliminary safety test was performed on human AuroraB and LCK kinases which often underpin toxicity issues. […] Further assays for compound characterization included determination of solubility and cytotoxicity (HepG2 inhibition). Thiazoles have been previously identified as human BRaf inhibitors that are used to treat melanoma.
as §1, §2, §3, §4
as §5, with “36.” for “36. Finally 2 µl of buffer containing the enzyme were dispensed in all the plate wells except for lanes 35 and 36.”
In general terms: In Kinase-Glo more light means more ATP remaining.

T1 sequence (Q8I719 whole entry): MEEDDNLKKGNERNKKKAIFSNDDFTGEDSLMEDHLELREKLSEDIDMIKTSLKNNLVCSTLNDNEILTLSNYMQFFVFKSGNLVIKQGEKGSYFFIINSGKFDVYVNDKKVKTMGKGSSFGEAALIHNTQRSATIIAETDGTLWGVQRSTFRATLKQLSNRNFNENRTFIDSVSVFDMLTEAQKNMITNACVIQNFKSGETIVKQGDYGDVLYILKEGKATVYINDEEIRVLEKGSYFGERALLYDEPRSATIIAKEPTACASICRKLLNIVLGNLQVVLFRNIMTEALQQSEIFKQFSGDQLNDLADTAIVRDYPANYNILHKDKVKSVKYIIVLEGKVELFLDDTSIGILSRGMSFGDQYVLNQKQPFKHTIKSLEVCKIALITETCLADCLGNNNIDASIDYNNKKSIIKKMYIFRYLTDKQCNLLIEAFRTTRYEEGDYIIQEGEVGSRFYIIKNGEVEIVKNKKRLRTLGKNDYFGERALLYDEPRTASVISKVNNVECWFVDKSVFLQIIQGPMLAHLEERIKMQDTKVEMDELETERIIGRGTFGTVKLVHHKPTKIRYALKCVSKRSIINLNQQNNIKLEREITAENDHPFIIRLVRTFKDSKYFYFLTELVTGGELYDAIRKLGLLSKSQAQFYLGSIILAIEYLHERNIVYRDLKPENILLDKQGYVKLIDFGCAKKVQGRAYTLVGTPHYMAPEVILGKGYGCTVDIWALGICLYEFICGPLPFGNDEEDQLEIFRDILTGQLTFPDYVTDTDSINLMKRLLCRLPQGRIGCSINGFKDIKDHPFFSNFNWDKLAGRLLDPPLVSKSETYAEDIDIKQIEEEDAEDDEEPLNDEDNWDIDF
T2 sequence (Q8I719 whole entry T618Q): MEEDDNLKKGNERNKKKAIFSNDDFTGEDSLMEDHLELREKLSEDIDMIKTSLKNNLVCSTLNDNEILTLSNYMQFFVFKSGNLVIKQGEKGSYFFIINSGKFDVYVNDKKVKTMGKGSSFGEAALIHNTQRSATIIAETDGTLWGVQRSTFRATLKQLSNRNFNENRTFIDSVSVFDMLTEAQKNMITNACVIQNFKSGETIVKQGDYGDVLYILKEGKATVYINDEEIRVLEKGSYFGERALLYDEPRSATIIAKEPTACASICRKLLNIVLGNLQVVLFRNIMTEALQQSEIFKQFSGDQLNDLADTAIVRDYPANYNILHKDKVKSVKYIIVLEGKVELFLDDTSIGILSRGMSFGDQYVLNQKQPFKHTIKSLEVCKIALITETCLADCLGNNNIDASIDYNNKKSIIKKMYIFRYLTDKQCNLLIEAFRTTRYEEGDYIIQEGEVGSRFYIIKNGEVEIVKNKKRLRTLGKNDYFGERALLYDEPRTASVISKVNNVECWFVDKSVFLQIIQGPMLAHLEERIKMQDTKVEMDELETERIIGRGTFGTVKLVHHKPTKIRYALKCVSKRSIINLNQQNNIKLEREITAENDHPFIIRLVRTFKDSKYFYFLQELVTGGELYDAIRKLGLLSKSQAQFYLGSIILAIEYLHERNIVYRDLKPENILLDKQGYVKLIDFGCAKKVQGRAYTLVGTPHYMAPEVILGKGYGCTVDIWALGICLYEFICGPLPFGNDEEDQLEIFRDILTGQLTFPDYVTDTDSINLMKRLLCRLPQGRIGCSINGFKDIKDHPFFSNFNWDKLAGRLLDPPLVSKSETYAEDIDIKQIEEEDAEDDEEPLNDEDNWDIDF

By IC50 is commonly meant the concentration needed to halve the response being measured. For orientation: chromatographic logD means lipophilicity estimated from chromatographic retention. Take `COc1ccc(CCNC(=O)CSc2ncnc3[nH]ncc23)cc1OC` [Compound 8]: the IC50 is 0.104 µM on WT PfPKG [1], above 50.1 µM at PI3KD and 22.1 µM on TQ PfPKG (PfPKG_T618Q). Besides, the AM Perm in data set [2] was 7 ×10⁻⁶ cm/s. Also, in data set [3], the chromatographic logD was determined as 2.3. This compound had an LE at WT PfPKG [4] (ligand efficiency) of 0.37. Moreover, on WT PfPKG [4] (lipophilic ligand efficiency), the LLE was determined as 5.5.
